Laboratory results taken from US10058587B2, “Peptide composition for cancer treatment by inhibiting TRPV6 calcium channel activity” (priority 2008, dated 2018).
Where no end group is shown, it is not given here.

What was measured:
[1] = test system: MV-4-11; assay: Apoptosis and cell viability in AML cell line (Example 13); type: cell-based, human; details: 0, 10 and 100 uM, 5 to 7 days
Procedure: (§1) For this work, the concentrations of SorC13 and SorC27 used are 0 uM, 10 uM and 100 uM. The experiments extend over a 5 to 7 day period. All measurements are done in quadruplicate with both a blank (no cells) and control (vehicle, no peptide) used to correct the test measurements. The time-response data, and the dose-response data are plotted as means±standard error of the mean.
The cell line MV-4-11 (from ATCC […]) is grown under the recommended conditions and in culture media recommended by ATCC. The cell lines were cultured under sterile conditions at 37° C., in a humidified 5% CO2 atmosphere.
(§2) Induction of apoptosis and attendant decrease is observed in cell viability in the cancer cell lines. From the large increases in the activities of the caspase3/7 activity, it is clear that there is a time dependent effect and a dose dependent effect on the induction of apoptosis.

[2] = test system: Daudi; assay: Apoptosis and cell viability in Burkitt's lymphoma cell line (Example 11); type: cell-based, human; details: 0, 10 and 100 uM, 5 to 7 days
Procedure: as §1
The cell line Daudi (from ATCC CCL-213) is grown under the recommended conditions and in culture media recommended by ATCC. The cell lines were cultured under sterile conditions at 37° C., in a humidified 5% CO2 atmosphere.
as §2

[3] = test system: mealworm larvae; assay: Mealworm larva paralytic bioassay; type: in vivo; details: for larvae paralyzed: 20 nmole/100 mg mass; for paralysis in the mealworm larva model: molar equivalent doses (20 nanomole/100 mg larva)
From the text: To show this, the mealworm larva paralytic bioassay reported previously (U.S. Pat. No. 7,119,168) was used. Animals from a mealworm colony were arbitrarily selected and placed in groups (treatment and control). The animals were weighed to allow calculation of equivalent doses. The treatment was with either SorC13 or SorC27 dissolved in buffered insect Ringer's solution. The control was injection was an equivalent volume of insect Ringer's (NaCl; 10.40 g; KCl, 0.32 g; CaCl2, 0.48 g; NaHCO3, 0.32 g dissolved in 1 L of Millipore sterile water, pH 7.4). Peptide formulations were: SorC27 solutions, prepared at 1.0 mg/100 uL insect Ringer's (10 ug/uL, […], MW=2957); and SorC13, prepared at 0.5 mg/100 uL (5 ug/uL, […], MW=1566). The doses were 50 ug SorC27 per 100 mg of animal mass and 25 ug SorC13 per 100 mg of animal mass. Peptide solutions and control saline were injected dorsally at the fourth segment from the head, just under the integumen. Animals were gently ‘tail tweaked’ with forceps to trigger the escape reflex reaction and scored on time-to-effect, duration of effect and intensity of effect.

[4] = test system: Human Non-Small Cell Lung Carcinoma (NSCLC) lines H1437 and H2087; assay: Apoptosis (APO-ONE) and cell viability (CellTiter Blue) in NSCLC lines (Example 9); type: cell-based; details: 10 and 100 uM
Procedure: The effects of the C-peptides on metastasizing human lung carcinoma cells are studied. […] In vitro studies employing SorC13 and SorC27 are carried out in metastatic lymph node-derived cell lines to determine their effect on Human Non-Small Cell Lung Carcinoma (NSCLC) lines H1437 (from ATCC CRL-5872) and H2087 (from ATCC CRL-5922). Both of these cell lines are adenocarcinomas derived from the metastaic site (lymph node) and from a stage 1 NSCLC lung cancer. Major lymphatics of interest which are usefully treated with peptides of the invention include superfacial cervical nodes, axillary nodes, brachial nodes, mesenteric nodes and inguinal nodes.
For the study, the cell lines are grown under the recommended conditions and in culture media recommended by ATCC. The cell lines are cultured under sterile conditions at 37° C., in a humidified 5% CO2 atmosphere.
Both the APO-ONE assay and the CellTiter Blue (Promega) are used on the cell lines to evaluate apoptosis and cell viability, respectively.

[5] = test system: OV90 ovarian cancer cell line; assay: Induction of apoptosis (APO-ONE caspase 3/7) and cell viability (CellTiter Blue); type: cell-based, human; set-up: key to Decline in cell viability: decreased (+); or not (−)
Procedure: OV-90 was cultured in a 1:1 mixture of MCDB 105 medium and Medium 199 supplemented with 15% (v/v) fetal bovine serum.
(§3) The levels of apoptotic induction and cell viability were determined by multiplexing the measurements for single samples. CellTiter Blue and APO-ONE assay systems from Promega allows the determination of cell viability correlated to cell number, and induction of apoptosis. This protocol uses a fluorgenic peptide that contains a peptide recognition-sequence for caspase 3 and caspase 7, […] proteolytic enzymes of the apoptosis cascade. The CellTiter Blue reagent was added to wells in a 96-well plate containing cells under test, immediately after addition of peptide solution or vehicle. About 5000 cells were plated into the wells the day before. At the chosen time (Day 1, Day 2 etc.) the fluorescence was measured at 590 nm (emission) after excitation at 560 nm. The caspase 3/7 activity was measured (485 nm Ex/527 nm Em) in the same wells after adding 120 uL of the Apo-ONE reagent, freeze fracturing at −80° C. for 1 hr, and incubating for 1 hr at room temperature.
(§4) For this work, the concentrations of SorC13 and SorC27 used were 0 uM, 1 uM, 10 uM and 100 uM. The experiments extended over a 5 to 7 day period. All measurements were done in quadruplicate with both a blank (no cells) and control (vehicle, no peptide) used to correct the test measurements. The time-response data, and the dose-response data were plotted as means±standard error of the mean. Any statistical comparisons were done with the Student's t-test or by ANOVA analysis over the dose course. The level of statistical significance was considered to be the 95% confidence interval (i.e., p≤0.05).
To compare the effect of the two SorC-peptides against the gold-standard treatment for ovarian cancers SorC13 or SorC27 was compared to treatment with a carboplatin and taxol (CAT) cocktail (10 uM Paclitaxel, 20 mM carboplatin) using the APO-ONE assay, which measures the combined activities of caspase 3 and caspase 7. Because of the mixed treatment (CAT), the effects were compared in terms of the ratio of treatment:control. If no effect was noted then the ratio=1. Comparisons of the treatment:control ratios were examined with the Student's t-test at a confidence level of 95%. Ratios of larger than a value of unity indicated a positive effect. The effects are illustrated in FIG. 5.

[6] = test system: MCF 7 breast cancer cell line; assay: as above; type: cell-based, human
Procedure: MCF-7, MDA-MB-231, MDA-MB-415, MDA-MB-468 were grown in DMEM modified with 10% (v/v) fetal bovine serum, 2 mM L-glutamine and 50 ug/mL each of penicillin and streptomycin.
as §3, §4
To benchmark the effect of both C-type peptides to the gold-standard treatment presently used against breast cancer (Paclitaxel), SorC13, SorC27 and Paclitaxel (10 uM) were compared. Both the APO-ONE assay (Promega) and the CellTiter Blue were used on the panel of breast cancer cell lines. The data were compared directly in terms of mean response and tested for significant difference.

EGKLSSNDTEGGLCKEFLHPSKVDLPR [SorC27]
induction of apoptosis and cell viability [1]: induces apoptosis and decreases cell viability | induction of apoptosis and cell viability [2]: induces apoptosis and decreases cell viability | larvae paralyzed ([3]; time 0 min): 0/4 | larvae paralyzed ([3]; time 2 min): 0/4 | larvae paralyzed ([3]; time 30 min): 0/4 | paralysis in the mealworm larva model [3]: no evidence of paralysis | induction of apoptosis [4]: induce apoptosis | Apoptosis Index (1 = no effect) ([5]; Day 2, SorC27 100 uM): 1.8 | Apoptosis Index (1 = no effect) ([5]; Day 3, SorC27 1 uM): 1.2 | Apoptosis Index (1 = no effect) ([5]; Day 3, SorC27 10 uM): 1.9 | Apoptosis Index (1 = no effect) ([5]; Day 3, SorC27 100 uM): 1.9 | Decline in cell viability ([5]; SorC27): + | Apoptosis Index (1 = no effect) ([6]; Day 2, SorC27 10 μM): 1.0 | Apoptosis Index (1 = no effect) ([6]; Day 2, SorC27 100 μM): 2.8 | Apoptosis Index (1 = no effect) ([6]; Day 3, SorC27 10 μM): 2.9 | Apoptosis Index (1 = no effect) ([6]; Day 3, SorC27 100 μM): 4.6 | induction of apoptosis compared with Paclitaxel (10 uM) ([6]; SorC27 10 uM): more effective at inducing a faster and more intense apoptotic cascade than Paclitaxel

KEFLHPSKVDLPR [SorC13, KEFLHPSKVDLPR]
induction of apoptosis and cell viability [1]: induces apoptosis and decreases cell viability | induction of apoptosis and cell viability [2]: induces apoptosis and decreases cell viability | larvae paralyzed ([3]; time 0 min): 0/4 | larvae paralyzed ([3]; time 2 min): 0/4 | larvae paralyzed ([3]; time 30 min): 0/4 | paralysis in the mealworm larva model [3]: no evidence of paralysis | induction of apoptosis [4]: induce apoptosis | apoptosis (treatment:control ratio) compared with CAT cocktail ([5]; CAT = 10 uM Paclitaxel, 20 mM carboplatin): produced earlier and more intense apoptosis cascade than the CAT cocktail | Apoptosis Index (1 = no effect) ([6]; SorC13 1 uM): 1.2 | Apoptosis Index (1 = no effect) ([6]; SorC13 10 uM): 1.1 | Apoptosis Index (1 = no effect) ([6]; SorC13 100 uM): 2.4
